According to EP0655460B1, “Pharmacotherapeutical use of glutathione derivatives” (Ohlenschläger, Gerhard, Dr. med., priority 1987, dated 1989):
Read-outs that look alike come from different tables or passages of the source.

Assays:
[1] = tested on: malignen Melanoms vom Menschen; conditions: 4 mice, 10^6 melanoma cells, 250 mg three times weekly
Text: 2.3) Versuch an 8 gesunden Graumäusen nach Transplantation eines malignen Melanoms vom Menschen.
In Fig. 1 ist das Wachstum des Tumors in Abhängigkeit von der Zeit dargestellt.

[2] = tested on: malignen Melanoms vom Menschen; conditions: 300 mg three times weekly
Description: 2.4) Versuch an 40 gesunden Graumäusen nach Transplantation eines malignen Melanoms vom Menschen.
40 gesunden Graumäusen wurden je 10^6 maligne Melanomzellen überimpft.
30 Tiere wurden vom Beginn der Versuchsreihe an drei mal wöchentlich mit je 300 mg reduziertem Glutathion behandelt.

[3] = cited from earlier work
Redoxstatus des Blutes [4] = conditions: human venous blood, 600 mg langsam intravenös, 10 Minuten after application, after load, n = 50, mean ± SD
Description: 2.2) Selbstversuch am Menschen zur Verbesserung und/oder zur Normalisierung des Redorstatus des Blutes:
Im menschlichen Venenblut wurden nach definierter Sauerstoff-Mangel-Belastung die gleichen Parameter bestimmt wie im vorstehend gegchilderten Versuch. Insgesamt wurden 50 Versuche an verschiedenen Tagen durchgeführt.
Danach wurde-reduziertes Glutathion in einer Dosis von 600 mg langsam intravenös verabreicht.
Randbedingungen: Temperatur 20°C, Luftdruck 758 - 770 mm Hg.

[5] = tested on: Glukose-6-Phosphat-Dehydrogenase; conditions: same conditions as 1.1 (0,5 mg, 37°C, 30 Minuten); n = 22, mean ± SD; Leerwert 148 ± 22
Description: (§1) Von 20 Patienten mit unterschiedlichen Erkrankungen wurden jeweils 10 ml menschlichen Venenblutes entnommen und dessen Gerinnungsfähigkeit durch Zusatz von Heparin aufgehoben. Als Parameter für die optimale Erythrozytenfunktion wurde vor und nach der Inkubation mit 0,5 mg reduziertem Glutathion bei 37°C während eines Zeitraumes von 30 Minuten der Gehalt an intraerythrozytärem reduziertem Glutathion bestimmt.
(§2) 1.2) In-vitro-Versuch an Zellensystemen menschlicher Erythrozyten:
(§3) Unter denselben Bedingungen wie bei vorstehend beschriebenem Versuch wurden die Enzyme Glukose-6-Phosphat-Dehydrogenase und Glutathion-Reduktase aus Erythrozyten von 22 Patienten in vitro untersucht.

Glutathion-Reduktase = Glutathion-Reduktase (Homo sapiens, UniProt P00390); conditions: same conditions as 1.1 (0,5 mg, 37°C, 30 Minuten); n = 22, mean ± SD; Leerwert 9,5 ± 0,8
Description: as §1, §2, §3

[6] = cited from earlier work; remark: listed apart in the source
[7] = cited from earlier work; remark: listed apart in the source
[8] = Toxicity of the therapeutic dosage in small animals; assay type: in vivo; conditions: small animals such as Graumäusen, Wistar-Ratten und Kaninchen; therapeutic dosage (2 - 5 mg/kg for man)
Description: Die therapeutische Dosierung, die sich im Tierversuch an Kleintieren wie Graumäusen, Wistar-Ratten und Kaninchen als untoxisch erwiesen hat, liegt für den Menschen in einem Bereich von 2 - 5 mg/kg Körpergewicht für eine Einzeldosis bei langsamer intravenöser Injektion, wobei das Injektionsvolumen 5 ml beträgt mit einem Gehalt an reduziertem Glutathion von 150 mg.

Redoxstatus des Blutes [9] = conditions: Kaninchen, Ohrvenenblut, 10 mg/kg intravenös, 5 - 10 Minuten after application, after load, n = 30, mean ± SD
Description: Bei 5 verschiedenen Kaninchen wurden in 30 Versuchen im venösen Blut folgende Parameter nach der Methode und mit dem gerät VINCENT gemessen: • Ohm'scher Widerstand: r • Redoxpotential EH bzw. Elektronenpotential: rH2 • pH-Wert: pH.
Die Werte wurden im Ohrvenenblut nach definierter Sauerstoffmangel-Belastung gemessen.
Danach wurde den Tieren reduziertes Glutathion in einer Dosis von 10 mg/kg Körpergewicht intravenös verabreicht.
5 - 10 Minuten nach der Applikation von reduziertem Glutathion wurden folgende Werte ermittelt:
Randbedingungen: Temperatur 20°C, Luftdruck 767 mm Hg.

[10] = 30 treated mice, 10^6 melanoma cells

Sequence of Glutathion-Reduktase (P00390 44-522): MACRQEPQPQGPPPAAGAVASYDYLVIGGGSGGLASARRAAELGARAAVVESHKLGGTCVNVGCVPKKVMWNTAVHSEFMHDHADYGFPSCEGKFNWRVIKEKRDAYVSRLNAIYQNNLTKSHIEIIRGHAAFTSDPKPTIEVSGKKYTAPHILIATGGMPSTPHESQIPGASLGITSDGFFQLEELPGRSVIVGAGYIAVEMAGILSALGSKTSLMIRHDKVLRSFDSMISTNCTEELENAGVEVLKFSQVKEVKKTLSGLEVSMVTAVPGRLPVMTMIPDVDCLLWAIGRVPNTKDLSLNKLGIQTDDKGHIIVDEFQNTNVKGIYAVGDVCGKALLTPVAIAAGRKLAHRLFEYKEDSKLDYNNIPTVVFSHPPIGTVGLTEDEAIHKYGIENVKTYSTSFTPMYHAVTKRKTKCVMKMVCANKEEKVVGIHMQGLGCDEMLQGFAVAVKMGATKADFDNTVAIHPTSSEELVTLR

SMILES: N[C@@H](CCC(=O)N[C@@H](CS)C(=O)NCC(=O)O)C(=O)O [reduziertes Glutathion, gamma-Glutamyl-cysteinyl-glycin]
- Überleben ([1]; controls died within 8 - 14 Tagen): überlebten bis zur siebten Woche
- Tumorwachstum ([1]; versus untreated controls): deutlich langsameres Tumorwachstum
- weitere gestorbene Tiere innerhalb 20 Tagen [2, 10]: fünf
- weitere gestorbene Tiere innerhalb 30 Tagen [2, 10]: sieben
- gestorbene Tiere innerhalb 15 Tagen ([2]; 30 treated mice, 10^6 melanoma cells, controls died within 8 - 12 Tagen): drei
- Anteil überlebender behandelter Tiere, 30 Tage Beobachtungszeitraum ([2]; of 30 treated mice): 50%
- überlebende Tiere, 30 Tage Beobachtungszeitraum ([2]; of 30 treated mice): 15 Tiere
- biologische Halbwertszeit in der Augenlinse ([3]; human tissue: Augenlinse): ca. 30 Std.
- biologische Halbwertszeit im Erythrozyten ([3]; human tissue: Erythrozyten): ca. 100 Std.
- biologische Halbwertszeit im Gehirn ([3]; human tissue: Gehirn): ca. 70 Std.
- biologische Halbwertszeit in der Leber ([3]; human tissue: Leber): ca. 4 Std.
- pH-Wert (Redoxstatus des Blutes [4]; without: 7,41 ± 0,18): pH = 7,23 ± 0,11
- Ohm'scher Widerstand r (Redoxstatus des Blutes [4]; without: 197 ± 14,5): r = 204 ± 12,3 Ohm/cm^3
- Glukose-6-Phosphat-Dehydrogenase, Werte nach Inkubation [5]: 179 ± 16 mU/ 10^9 Erys.
- Glutathion-Reduktase, Werte nach Inkubation (Glutathion-Reduktase): 11,3 ± 1,2 U/ 10^11 Erys.
- Löslichkeit in Wasser ([6]; Wasser): leicht löslich
- Löslichkeit in physiologischer Kochsalzlösung ([6]; physiologischer Kochsalzlösung): leicht löslich
- Löslichkeit in Äthanol ([6]; Äthanol): löslich
- pK-Wert COOH(1) ([7]; COOH(1)): 3,53
- pK-Wert COOH(2) ([7]; COOH(2)): 2,12
- pK-Wert NH3 ^+ ([7]; NH3 ^+): 8,66
- pK-Wert SH ([7]; SH): 9,66
- Toxizität der therapeutischen Dosierung im Tierversuch [8]: untoxisch
- pH-Wert (Redoxstatus des Blutes [9]; without: 7,38 ± 0,21): pH = 7,15 ± 0,16
- Ohm'scher Widerstand r (Redoxstatus des Blutes [9]; without: 199 ± 12): r = 202 ± 14 Ohm/cm^3
